In general, Ki refers to the equilibrium dissociation constant of an inhibitor or competing ligand from its target.

The target of one experiment is T1, BRD4 (BDI_K57-E168) (Homo sapiens, UniProt O60885).
T1 construct: BD1: amino acids K57-E168; made in house
Kind of experiment: TR-FRET bromodomain binding assay, BRD4 first bromodomain. The settings on record: His-tagged BD1, Alexa647-labeled probe 100 nM; Ki calculated from IC50. In short, it runs like this:
(§1)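 Read-out: TR-FRET ratio after 1 h at room temperature, normalized to controls and fitted for IC50, then converted to Ki. Reaction held 8 nM His-tagged domain, 1 nM Eu-anti-His antibody, Alexa647 probe (BDI 100 nM; BDII 30 nM) and test compound in 2% DMSO.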

For the next experiment, the target named is T2, BRD4 (BDII_E352-M457) (Homo sapiens, UniProt O60885).
T2 construct: made in house
Kind of experiment: TR-FRET bromodomain binding assay, BRD4 second bromodomain. The settings on record: His-tagged BD2, Alexa647-labeled probe 30 nM; Ki calculated from IC50. In short, it runs like this: as §1

The subject of experiment [1] is breast cancer cell line MX-1. Nature of the experiment: MX-1 cell line proliferation assay. Format: cell-based. The conditions noted are these: Homo sapiens, MX1, 72 h, MX-1 cells, 3-day proliferation assay, Cell Titer Glo; read-out: Cellular proliferation: EC50. As for the experimental part: The impact of compounds of the Examples on cancer cell proliferation was determined using the breast cancer cell line MX-1 (ATCC) in a 3-day proliferation assay and the data are reported in Table 1. MX-1 cells were maintained in RPMI 1640 medium (Sigma) supplemented with 10% FBS at 37° C. and an atmosphere of 5% CO2. For compound testing, MX-1 cells were plated in 96-well black bottom plates at a density of 5000 cells/well in 90 μL of culture media and incubated at 37° overnight to allow cell adhesion and spreading. Compound dilution series were prepared in DMSO via a 3-fold serial dilution from 3 mM to 0.1 μM. The DMSO dilution series were then diluted 1:100 in phosphate buffered saline, and 10 μL of the resulted solution were added to the appropriate wells of the MX-1 cell plate. The final compound concentrations in the wells were 3, 1, 0.3, 0.1, 0.03, 0.01, 0.003, 0.001, 0.0003 and 0.0001 μM.
Luminescence readings from the Cell Titer Glo assay were normalized to the DMSO treated cells and analyzed using the GraphPad Prism software with sigmoidal curve fitting to obtain EC50s. The minimum significant ratio (MSR) was determined to evaluate assay reproducibility (Eastwood et al., (2006) J Biomol Screen, 11: 253-261).
Background: Cellular ATP, detected with luciferase, serves as a proxy for viable cell number.

Where only a bound is given, the exact number is not on record here.

`Cc1cccc(Oc2ccccc2-c2cc(C(N)=O)c(C)[nH]2)c1` [Example 134, 2-methyl-5-[2-(3-methylphenoxy)phenyl]-1H-pyrrole-3-carboxamide]: the Ki is 0.493 µM at BRD4 (BDI_K57-E168) and 1.17 µM on BRD4 (BDII_E352-M457). In addition, the EC50 in experiment [1] is over 10 µM.

Consider `Cc1[nH]c(-c2ccccc2NC(=O)Cc2ccccc2)cc1C(N)=O` [Example 76, 2-methyl-5-{2-[(phenylacetyl)amino]phenyl}-1H-pyrrole-3-carboxamide], for which the results for the Ki at BRD4 (BDI_K57-E168) and on BRD4 (BDII_E352-M457) were 4.5 µM and 2.98 µM, respectively. For the same compound, the EC50 in experiment [1] is 13.4 µM.

`Cc1[nH]c(-c2ccccc2NC[C@H]2CC[C@H](N)CC2)cc1C(N)=O` [Example 49, 5-(2-{[(trans-4-aminocyclohexyl)methyl]amino}phenyl)-2-methyl-1H-pyrrole-3-carboxamide]: the figures for the inhibitory constant (Ki) at BRD4 (BDI_K57-E168) and at BRD4 (BDII_E352-M457) were 0.313 µM and 5.6 µM, respectively. Further, the EC50 in experiment [1] is over 10 µM.

Regarding `COC(=O)CCc1ccccc1Oc1ccccc1-c1cc(C(N)=O)c(C)[nH]1` [Example 133, methyl 3-{2-[2-(4-carbamoyl-5-methyl-1H-pyrrol-2-yl)phenoxy]phenyl}propanoate], the Ki on BRD4 (BDI_K57-E168) is 0.31 µM; on BRD4 (BDII_E352-M457), 0.576 µM. The EC50 in experiment [1] was determined as 1.83 µM.

Regarding `Cc1[nH]c(-c2ccccc2NC2CCOC2)cc1C(N)=O` (stereo not drawn) [Example 63, 2-methyl-5-[2-(tetrahydrofuran-3-ylamino)phenyl]-1H-pyrrole-3-carboxamide], the Ki is 0.352 µM on BRD4 (BDI_K57-E168) and 6.9 µM at BRD4 (BDII_E352-M457). The EC50 in experiment [1] turned out to be 2.46 µM.

Regarding `Cc1[nH]c(-c2ccccc2NC2CCCCC2F)cc1C(N)=O` (stereo not drawn) [Example 75, 5-{2-[(2-fluorocyclohexyl)amino]phenyl}-2-methyl-1H-pyrrole-3-carboxamide], the Ki on BRD4 (BDI_K57-E168) was 0.0376 µM; at BRD4 (BDII_E352-M457), 0.225 µM. Besides, in experiment [1], the EC50 turned out to be 0.433 µM.

For `Cc1[nH]c(-c2ccccc2NCC2CCOC2)cc1C(N)=O` (single isomer, unassigned) [Example 18], the values for the Ki on BRD4 (BDI_K57-E168) and on BRD4 (BDII_E352-M457) were 0.183 µM and 2.34 µM, respectively. In experiment [1], the EC50 is 2.85 µM.

As for `Cc1[nH]c(-c2ccccc2NC2CCc3ccccc32)cc1C(N)=O` (stereo not drawn) [Example 67, 5-[2-(2,3-dihydro-1H-inden-1-ylamino)phenyl]-2-methyl-1H-pyrrole-3-carboxamide], the Ki on BRD4 (BDI_K57-E168) was 0.452 µM; on BRD4 (BDII_E352-M457), 0.81 µM. In experiment [1], the EC50 was over 3 µM.

For `Cc1[nH]c(-c2ccccc2Oc2cccc3ncccc23)cc1C(N)=O` [Example 128, 2-methyl-5-[2-(quinolin-5-yloxy)phenyl]-1H-pyrrole-3-carboxamide], the Ki was 0.0273 µM at BRD4 (BDI_K57-E168) and 0.318 µM on BRD4 (BDII_E352-M457). The EC50 in experiment [1] amounted to 0.4 µM.

Consider `Cc1[nH]c(-c2ccccc2Oc2ccc3ccccc3c2)cc1C(N)=O` [Example 139, 2-methyl-5-[2-(naphthalen-2-yloxy)phenyl]-1H-pyrrole-3-carboxamide], for which the Ki at BRD4 (BDI_K57-E168) is 0.728 µM; on BRD4 (BDII_E352-M457), 1.19 µM. Also, the EC50 in experiment [1] stood at 8.56 µM.

On to `Cc1[nH]c(-c2ccccc2Oc2ccc(F)cc2)cc1C(N)=O` [Example 141, 5-[2-(4-fluorophenoxy)phenyl]-2-methyl-1H-pyrrole-3-carboxamide], for which the Ki on BRD4 (BDI_K57-E168) was 0.123 µM; on BRD4 (BDII_E352-M457), 1.6 µM. Also, the EC50 in experiment [1] was 2.42 µM.

With `Cc1[nH]c(-c2ccccc2NCc2ccc(O)cc2)cc1C(N)=O` [Example 54, 5-{2-[(4-hydroxybenzyl)amino]phenyl}-2-methyl-1H-pyrrole-3-carboxamide], the results for the Ki on BRD4 (BDI_K57-E168) and on BRD4 (BDII_E352-M457) were 0.585 µM and 3.88 µM, respectively. Moreover, the EC50 in experiment [1] was found to be 0.19 µM.

Take `Cc1[nH]c(-c2cccc(-c3cccc(CN4CCN(C)CC4)c3)c2)cc1C(N)=O` [Example 158, 2-methyl-5-{3′-[(4-methylpiperazin-1-yl)methyl]biphenyl-3-yl}-1H-pyrrole-3-carboxamide]: the Ki was 1.5 µM at BRD4 (BDI_K57-E168) and 2.14 µM on BRD4 (BDII_E352-M457). Further, in experiment [1], the EC50 is 7.75 µM.

On to `Cc1[nH]c(-c2cc(CCO)ccc2OCc2ccccc2)cc1C(N)=O` [Example 167, 5-[2-(benzyloxy)-5-(2-hydroxyethyl)phenyl]-2-methyl-1H-pyrrole-3-carboxamide], for which the Ki was 0.627 µM at BRD4 (BDI_K57-E168) and 2.25 µM on BRD4 (BDII_E352-M457). In addition, the EC50 in experiment [1] is over 3 µM.

As for `Cc1[nH]c(-c2ccccc2Cc2ccccc2)cc1C(N)=O` [Example 148, 5-(2-benzylphenyl)-2-methyl-1H-pyrrole-3-carboxamide], the Ki at BRD4 (BDI_K57-E168) is 0.355 µM; on BRD4 (BDII_E352-M457), 0.605 µM. Further, the EC50 in experiment [1] came out at 4.32 µM.

For the compound `Cc1[nH]c(-c2ccccc2Oc2cccc(Cl)c2)cc1C(N)=O` [Example 142, 5-[2-(3-chlorophenoxy)phenyl]-2-methyl-1H-pyrrole-3-carboxamide], the values for the Ki on BRD4 (BDI_K57-E168) and at BRD4 (BDII_E352-M457) were 0.357 µM and 0.775 µM, respectively. In addition, the EC50 in experiment [1] was found to be 2.13 µM.

Turning to `Cc1[nH]c(-c2ccccc2NCCC2CCN(C(=O)OC(C)(C)C)CC2)cc1C(N)=O` [Example 44, tert-butyl 4-(2-{[2-(4-carbamoyl-5-methyl-1H-pyrrol-2-yl)phenyl]amino}ethyl)piperidine-1-carboxylate], the figures for the Ki on BRD4 (BDI_K57-E168) and on BRD4 (BDII_E352-M457) were 0.322 µM and 1.79 µM, respectively. Further, in experiment [1], the EC50 is over 10 µM.

As to `Cc1[nH]c(-c2ccccc2NCC2CCCO2)cc1C(N)=O` (stereo not drawn) [Example 13, 2-methyl-5-{2-[(tetrahydrofuran-2-ylmethyl)amino]phenyl}-1H-pyrrole-3-carboxamide], the results for the Ki at BRD4 (BDI_K57-E168) and on BRD4 (BDII_E352-M457) were 0.774 µM and 4.54 µM, respectively. In experiment [1], the EC50 was 3.3 µM.

With `Cc1[nH]c(-c2ccccc2NC[C@H]2CC[C@H](NC(=O)OC(C)(C)C)CC2)cc1C(N)=O` [Example 46, tert-butyl [trans-4-({[2-(4-carbamoyl-5-methyl-1H-pyrrol-2-yl)phenyl]amino}methyl)cyclohexyl]carbamate], the Ki at BRD4 (BDI_K57-E168) was 0.426 µM; on BRD4 (BDII_E352-M457) it was 16.3 µM. Further, in experiment [1], the EC50 is 4.95 µM.

As to `Cc1[nH]c(-c2ccccc2NC2C3CC4CC(C3)CC2C4)cc1C(N)=O` (stereo not drawn) [Example 72, 2-methyl-5-{2-[tricyclo[3.3.1.1^3,7]dec-2-ylamino]phenyl}-1H-pyrrole-3-carboxamide], the Ki on BRD4 (BDI_K57-E168) is 0.0781 µM; on BRD4 (BDII_E352-M457) it was 0.416 µM. The EC50 in experiment [1] amounted to 0.167 µM.

Consider `Cc1[nH]c(-c2ccccc2NCc2cccs2)cc1C(N)=O` [Example 38, 2-methyl-5-{2-[(thiophen-2-ylmethyl)amino]phenyl}-1H-pyrrole-3-carboxamide], for which the Ki on BRD4 (BDI_K57-E168) is 0.622 µM; on BRD4 (BDII_E352-M457) it was 1.14 µM. Moreover, the EC50 in experiment [1] was 3.8 µM.

As for `Cc1[nH]c(-c2ccccc2NS(=O)(=O)Cc2ccccc2)cc1C(N)=O` [Example 83, 5-{2-[(benzylsulfonyl)amino]phenyl}-2-methyl-1H-pyrrole-3-carboxamide], the Ki at BRD4 (BDI_K57-E168) is 0.237 µM; on BRD4 (BDII_E352-M457), 0.653 µM. The EC50 in experiment [1] was over 3 µM.

For `Cc1[nH]c(-c2ccccc2NCC2CCNC2)cc1C(N)=O` (stereo not drawn) [Example 42, 2-methyl-5-{2-[(pyrrolidin-3-ylmethyl)amino]phenyl}-1H-pyrrole-3-carboxamide], the Ki was 0.446 µM on BRD4 (BDI_K57-E168) and 14.5 µM at BRD4 (BDII_E352-M457). The EC50 in experiment [1] was over 10 µM.

`Cc1[nH]c(-c2ccccc2Oc2ccc3cc[nH]c3c2)cc1C(N)=O` [Example 118, 5-[2-(1H-indol-6-yloxy)phenyl]-2-methyl-1H-pyrrole-3-carboxamide]: the Ki at BRD4 (BDI_K57-E168) is 0.529 µM; at BRD4 (BDII_E352-M457), 1.73 µM. Also, the EC50 in experiment [1] turned out to be 1.32 µM.

Take `Cc1[nH]c(-c2ccccc2NCC2CCOC2)cc1C(N)=O` (stereo not drawn) [Example 17, 2-methyl-5-{2-[(tetrahydrofuran-3-ylmethyl)amino]phenyl}-1H-pyrrole-3-carboxamide]: the Ki on BRD4 (BDI_K57-E168) was 0.248 µM; at BRD4 (BDII_E352-M457), 1.87 µM. Also, the EC50 in experiment [1] was determined as 1.5 µM.

Turning to `Cc1[nH]c(-c2cccc(-c3ccc(C(=O)NCCN(C)C)cc3)c2)cc1C(N)=O` [Example 159, 5-(4′-{[2-(dimethylamino)ethyl]carbamoyl}biphenyl-3-yl)-2-methyl-1H-pyrrole-3-carboxamide], the results for the Ki at BRD4 (BDI_K57-E168) and at BRD4 (BDII_E352-M457) were 1.08 µM and 2.1 µM, respectively. In experiment [1], the EC50 was 28.6 µM.

Consider `Cc1[nH]c(-c2ccccc2Oc2cccc3cnccc23)cc1C(N)=O` [Example 125, 5-[2-(isoquinolin-5-yloxy)phenyl]-2-methyl-1H-pyrrole-3-carboxamide], for which the figures for the Ki on BRD4 (BDI_K57-E168) and on BRD4 (BDII_E352-M457) were 0.18 µM and 0.192 µM, respectively. For the same compound, the EC50 in experiment [1] is 1.6 µM.

The values are drawn from patent US9493411B2 (AbbVie Inc., priority 2013, dated 2016).
